In patent US9814761B2, “Compositions, methods and assays comprising amylin or amlyin analogs for abeta-peptide mediated disorders” (TRUSTEES OF BOSTON UNIVERSITY, priority 2012, dated 2017):
“Also recorded” adds a separate entry of the source.

How the values were obtained:
serum Aβ1-40 and Aβ1-42 [1] = assay: amylin challenge test: i.p. injection, serum Aβ1-40 and Aβ1-42 by ELISA, Tg2576 mice; type: in vivo; settings: 5 minutes
Experimental: (§1) TgAPP2576 mice (n=5) and control mice (n=5) were used. Intraperitoneal injection of amylin (20 mg/kg) was performed, and blood was drawn and collected at pre-injection, after injection at 5 minutes, 1 hr and 24 hrs. Serum Aβ1-40 and Aβ1-42 were measured using ELISA assay. The results of serum Aβ1-40 and Aβ1-42 for each individual mouse are shown. This experiment has been repeated twice for each mouse and similar results were obtained.
(§2) As shown at FIGS. 3A-3E, amylin injection removes Aβ from the brain into blood in APP transgenic mice. Both the Tg2576 and wild type (WT) mice were used for the amylin challenge test. FIGS. 3A-3B. Amylin (20 mg/kg) was intraperitoneally injected (i.p), and blood was drawn and collected at the time points of pre-injection (the control n=7; Tg2576 n=11), after injection 5 minutes (the control n=7; Tg2576 n=6), 1 hr (the control n=7; Tg2576 n=10) and 24 hrs (the control n=7; Tg2576 n=11). Serum Aβ1-40 and Aβ1-42 were measured by using the ELISA assays. FIGS. 3C-3E. The levels of serum Aβ1-40 and Aβ1-42 at pre-injection of amylin were treated as 1 s, and the relative fold increase after amylin injection at each time point was shown and compared with the pre-injection level by using two-way ANOVA. ***p<0.01; **p<0.05 and *p<0.10.
(§3) FIGS. 6A-6D depict amylin injection and serum Aβ in mice. Both control mice (wild type) and Tg2576 mice were used for the amylin injection test. Amylin (20 mcg/kg) was intraperitoneally injected (i.p), and blood was drawn at the following time points: at baseline or pre-injection (controls n=7; Tg2576 n=11), at 5 minutes (controls n=7; Tg2576 n=6), at 1 hr (controls n=7; Tg2576 n=10) and at 24 hrs (controls n=7; Tg2576 n=11) post injection. Serum Aβ1-40 and Aβ1-42 were measured by using the ELISA assays. The levels of serum Aβ1-40 and Aβ1-42 at pre-injection of amylin were treated as 1 s, and the relative fold increase after amylin injection at each time point was shown and compared with the pre-injection level by using a two-way ANOVA. ***p<0.01; **p<0.05 and *p<0.10.
(§4) Validation: We used the APP transgenic mice (Tg2576) to conduct amylin challenge test. Tg2576 mice have Aβ deposits in the brain like the AD pathology. After intraperitoneal injection of amylin (20 mg/kg), Tg2576 mice (n=5) presented with the increase of serum Aβ40 and Aβ42 at 5 minutes, 1 hr and 24 hrs compared to the pre-injection levels of serum Aβ40 and Aβ42.

serum Aβ1-40 and Aβ1-42 [2] = assay: amylin challenge test: i.p. injection, serum Aβ1-40 and Aβ1-42 by ELISA, control (wild type) mice; type: in vivo
Experimental: as §1, §2, §3
FIG. 7 depicts results of i.p injection of pramlintide, an analog of amylin, into one Tg2576 mouse (A1) and two wild type mice (N1 and N2) and comparison of their serum Aβ40 level before and after the injection.
as §4

serum Aβ1-40 and Aβ1-42 [3] = assay: amylin challenge test, serum Aβ, 5XFAD mice; type: in vivo
Source text: The higher the levels of Aβ and the number of amyloid plaques in the brain, the higher fold of serum Aβ was increased after the peripheral amylin challenge.

[4] = test system: Aβ1-40 and Aβ1-42 in blood; assay: amylin challenge test, blood Aβ, APP Dutch mutation mouse line; type: in vivo, APP mouse line which carries the APP Dutch mutation
5XFAD mice [5] = assay: Y Maze Spontaneous Alternation test after long-term amylin treatment; type: in vivo; settings: 5XFAD mice aged 2 months; amylin 20 mcg/kg i.p. daily for 10 weeks vs. saline; n=8
Experimental: Since amylin can enhance the removal of Aβ out of the brain into blood, it was tested whether amylin and its analogs can be a treatment for AD. Thus, we treated 5XFAD mice aged 2 months old with i.p injection of amylin (20 mcg/kg) vs. saline (n=8 in each group) daily for 10 weeks, and then conducted Y Maze Spontaneous Alternation test for measuring the willingness of mice to explore new environments.

5XFAD mice [6] = assay: Y-water Maze test after long-term amylin treatment; type: in vivo
Experimental: 5XFAD mice were treated with either i.p amylin or saline for 8 weeks followed by Y-water maze test. The average latency of recognizing the object after the training was calculated for each group (n=10) and statistical significance for the comparison is shown.

[7] = test system: Aβ monomers and Aβ oligomers in the brain; assay: Aβ in the brain after amylin treatment, western blots and ELISA assays; type: in vivo; settings: 5XFAD mice; amylin treatment compared to saline
Source text: Changes of Aβ in the brain were examined after the amylin treatment in 5XFAD mice using both western blots and ELISA assays. […] Thus, without wishing to be bound or limited by theory, the benefits of memory improvement from amylin treatment is mediated, in part, by 1) removing Aβ from the AD brain into blood and 2) reducing the amount of Aβ oligomers in the brain.

mouse models = assay: daily dosing in mouse models, memory functions; type: in vivo, mice
[8] = Banks and Kastin, 1998; cited from earlier work
[9] = Tg2576 mice (n=5), amylin 20 mg/kg intraperitoneal, 1 hr and 24 hrs
[10] = Tg2576 mice, single amylin injection 20 mcg/kg i.p., 1 hr, 24 hrs
[11] = control mice (n=5), amylin 20 mg/kg intraperitoneal
[12] = control mice (wild type), single amylin injection 20 mcg/kg i.p.

amylin (KCNTATCATQRLANFLVHSSNNFGAILSSTNVGSNTY; listed as Homo sapiens)
serum Aβ40 compared to the pre-injection level (serum Aβ1-40 and Aβ1-42 [1]; [9]): increase
serum Aβ42 compared to the pre-injection level (serum Aβ1-40 and Aβ1-42 [1]; [9]): increase
serum Aβ40 compared to the pre-injection level (serum Aβ1-40 and Aβ1-42 [1]; [10]): surges
serum Aβ42 compared to the pre-injection level (serum Aβ1-40 and Aβ1-42 [1]; [10]): surges
serum Aβ40 compared to the pre-injection level (serum Aβ1-40 and Aβ1-42 [2]; [11]): did not have these surges
serum Aβ42 compared to the pre-injection level (serum Aβ1-40 and Aβ1-42 [2]; [11]): did not have these surges
serum Aβ40 compared to the pre-injection level (serum Aβ1-40 and Aβ1-42 [2]; [12]): none of the control mice (wild type), had surges
serum Aβ42 compared to the pre-injection level (serum Aβ1-40 and Aβ1-42 [2]; [12]): none of the control mice (wild type), had surges
Aβ1-42 in serum (serum Aβ1-40 and Aβ1-42 [3]; 5XFAD mice aged 3 months, i.p. injection of amylin): increased level
serum Aβ levels after peripheral amylin injection (serum Aβ1-40 and Aβ1-42 [3]; different aged 5XFAD mice): increase of serum Aβ levels reflecting the amounts of Aβ in the brains
Aβ1-40 in blood [4]: surge
% alternation rate (5XFAD mice [5]): significantly increased
Y-water maze, average latency of recognizing the object after the training (5XFAD mice [6]; 5XFAD mice, i.p. amylin or saline for 8 weeks, n=10): improves; also recorded: improved memory impairment
time for acquisition (escaping onto the platform) (5XFAD mice [6]; APP transgenic mice, long-term amylin treatment vs placebo): significantly reduced
memory retention: time to find the platform (5XFAD mice [6]; APP transgenic mice, long-term amylin treatment vs placebo, at 30 minutes and at 3 days, p<0.02): shortening the time to find the platform
amount of Aβ monomers in the brain [7]: did not change
amount of Aβ oligomers in the brain [7]: significantly reduced
memory functions / cognition (mouse models): increased memory functions
passage through the brain blood barrier (BBB) into the brain [8]: freely passes through the brain blood barrier (BBB)
